Laboratory results published in ChEMBL document CHEMBL5335866, “Structure-Based Optimization of Selective and Brain Penetrant CK1δ Inhibitors for the Treatment of Circadian Disruptions” (ACS Med Chem Lett, 2024).
Activity calls are given as the source filed them. The calls are words filed in the database; no cut-off is given here.

Columns and labels:
[1] = Cmax in brain of C57BL/6 mouse at 30 mg/kg, sc measured for 6 hrs by LC/MS-MS analysis; format: ADME, organism-based; set-up: time 6 hrs, dose 30 mg/kg, route sc
[2] = Half life in Sprague-Dawley rat at 5 mg/kg, po measured for 24 hrs by LC-MS/MS analysis; format: ADME, organism-based; conditions: in vivo
[3] = Unbound drug concentration in brain of C57BL/6 mouse at 30 mg/kg, sc measured for 6 hrs by LC/MS-MS analysis; format: ADME, organism-based; conditions: in vivo
[4] = target: Cytochrome P450 2C8 (Homo sapiens, UniProt P10632); assay: Inhibition of CYP2C8 in human liver microsomes incubated for 10 mins in presence of NADPH by LC-MS/MS analysis; format: ADME, Microsome
[5] = tested on: Brain; assay: Ex vivo receptor occupancy at CK1 delta in brain of C57BL/6 mouse at 30 mg/kg, sc measured for 6 hrs by autoradiography relative to control; format: functional
[6] = Cmax in brain of C57BL/6 mouse at 30 mg/kg, sc measured after 15 mins by LC/MS-MS analysis; format: ADME, organism-based; set-up: time 15 min, dose 30 mg/kg, route sc
[7] = Unbound Cmax in Sprague-Dawley rat at 5 mg/kg, po measured for 24 hrs by LC-MS/MS analysis; format: ADME, organism-based; conditions: in vivo
[8] = Intrinsic clearance in dog liver microsomes at 1 uM preincubated for 5 mins followed by NADPH addition measured for 60 mins by LC-MS/MS analysis; format: ADME, Canis lupus familiaris, Microsome; conditions: time 65 min, read-out: CLH
[9] = target: Cytochrome P450 3A4 (Homo sapiens, UniProt P08684); assay: Inhibition of CYP3A4 in human liver microsomes using midazolam as substrate incubated for 5 mins in presence of NADPH by LC-MS/MS analysis; format: ADME, Microsome
[10] = Cmax in Sprague-Dawley rat at 5 mg/kg, po measured for 24 hrs by LC-MS/MS analysis; format: ADME, organism-based; set-up: dose 5 mg/kg, time 24 hrs, route po; conditions: in vivo
[11] = target: Cytochrome P450 2C19 (Homo sapiens, UniProt P33261); assay: Inhibition of CYP2C19 in human liver microsomes incubated for 10 mins in presence of NADPH by LC-MS/MS analysis; format: ADME, Microsome
[12] = Volume of distribution at steady state in Sprague-Dawley rat at 1 mg/kg, iv measured for 24 hrs by LC-MS/MS analysis; format: ADME, organism-based; conditions: in vivo, read-out: Vdss
[13] = Intrinsic clearance in rat liver microsomes at 1 uM preincubated for 5 mins followed by NADPH addition measured for 60 mins by LC-MS/MS analysis; format: ADME, Microsome; conditions: time 65 min, read-out: CLH
[14] = Clearance in Sprague-Dawley rat at 1 mg/kg, iv measured for 24 hrs by LC-MS/MS analysis; format: ADME, organism-based; conditions: in vivo
[15] = Oral bioavailability in Sprague-Dawley rat at 5 mg/kg measured for 24 hrs by LC-MS/MS analysis; format: ADME, organism-based; conditions: in vivo
[16] = target: Casein kinase I isoform alpha (Homo sapiens, UniProt P48729); assay: Inhibition of CK1 alpha (unknown origin)
[17] = Intrinsic clearance in mouse liver microsomes at 1 uM preincubated for 5 mins followed by NADPH addition measured for 60 mins by LC-MS/MS analysis; format: ADME, Microsome; conditions: time 65 min, read-out: CLH
[18] = target: Cytochrome P450 2C9 (Homo sapiens, UniProt P11712); assay: Inhibition of CYP2C9 in human liver microsomes incubated for 10 mins in presence of NADPH by LC-MS/MS analysis; format: ADME, Microsome
[19] = target: Cytochrome P450 1A2 (Homo sapiens, UniProt P05177); assay: Inhibition of CYP1A2 in human liver microsomes incubated for 10 mins in presence of NADPH by LC-MS/MS analysis; format: ADME, Microsome
[20] = target: Cytochrome P450 2D6 (Homo sapiens, UniProt P10635); assay: Inhibition of CYP2D6 in human liver microsomes incubated for 10 mins in presence of NADPH by LC-MS/MS analysis; format: ADME, Microsome
[21] = Ratio of unbound fraction in brain to plasma of C57BL/6 mouse at 30 mg/kg, sc measured for 6 hrs by LC/MS-MS analysis; format: ADME, organism-based; conditions: read-out: K(p,uu,brain)
[22] = Intrinsic clearance in cynomolgus monkey liver microsomes at 1 uM preincubated for 5 mins followed by NADPH addition measured for 60 mins by LC-MS/MS analysis; format: ADME, Macaca fascicularis, Microsome; conditions: time 65 min, read-out: CLH
[23] = Apparent permeability across apical to basal side in MDCK cells expressing MDR1 at 5 uM incubated for 60 mins by LC/MS/MS analysis; format: ADME, cell-based, Canis lupus familiaris, MDCK1; conditions: dog
[24] = Cmax in plasma of C57BL/6 mouse at 30 mg/kg, sc measured after 15 mins by LC/MS-MS analysis; format: ADME, organism-based; set-up: dose 30 mg/kg, time 15 min, route sc
[25] = Intrinsic clearance in human liver microsomes at 1 uM preincubated for 5 mins followed by NADPH addition measured for 60 mins by LC-MS/MS analysis; format: ADME, Microsome; conditions: time 65 min, read-out: CLH
[26] = target: Casein kinase I isoform epsilon (Homo sapiens, UniProt P49674); assay: Inhibition of CK1 epsilon (unknown origin)
[27] = Effect on circadian rhythms in C57BL/6 mouse assessed as phase delay in time at 30 mg/kg, sc qd for 10 days by wheel running assay; format: functional; conditions: time 10 day
[28] = Cmax in plasma of C57BL/6 mouse at 30 mg/kg, sc measured for 6 hrs by LC/MS-MS analysis; format: ADME, organism-based; set-up: time 6 hrs, dose 30 mg/kg, route sc
[29] = AUC (infinity) in Sprague-Dawley rat at 5 mg/kg, po measured for 24 hrs by LC-MS/MS analysis; format: ADME, organism-based; set-up: time 24 hrs, dose 5 mg/kg, route po; conditions: in vivo
[30] = Unbound drug concentration in plasma of C57BL/6 mouse at 30 mg/kg, sc measured for 6 hrs by LC/MS-MS analysis; format: ADME, organism-based; conditions: in vivo
[31] = Oral bioavailability in C57BL/6 mouse at 5 mg/kg measured for 6 hrs by LC/MS-MS analysis; format: ADME, organism-based; conditions: in vivo
[32] = tested on: Mus musculus; assay: Effect on circadian rhythms in C57BL/6 mouse assessed as phase shift at 30 mg/kg, sc qd measured after 4 to 10 days by wheel running assay; format: functional, organism-based; conditions: time 4-10 day
[33] = target: TRAF2 and NCK-interacting protein kinase (Homo sapiens, UniProt Q9UKE5); assay: Inhibition of TNIK (unknown origin)
[34] = Cmax in plasma of C57BL/6 mouse at 30 mg/kg, sc measured after 30 mins by LC/MS-MS analysis; format: ADME, organism-based; set-up: time 30 min, dose 30 mg/kg, route sc
[35] = Oral bioavailability in C57BL/6 mouse at 30 mg/kg measured for 6 hrs by LC/MS-MS analysis; format: ADME, organism-based; conditions: in vivo
[36] = Cmax in brain of C57BL/6 mouse at 30 mg/kg, sc measured after 30 mins by LC/MS-MS analysis; format: ADME, organism-based; set-up: time 30 min, dose 30 mg/kg, route sc
[37] = tested on: Mus musculus; assay: Effect on circadian rhythms in C57BL/6 mouse assessed as phase shift at 10 to 30 mg/kg, sc qd measured after 1 to 10 days by wheel running assay; format: functional, organism-based; conditions: dose 10-30 mg/kg, time 1-10 day, tested as the 2H-labelled form
[38] = Cmax in C57BL/6 mouse at 5 mg/kg, po measured for 6 hrs by LC/MS-MS analysis; format: ADME, organism-based; set-up: dose 5 mg/kg, time 6 hrs, route po; conditions: in vivo

Chain of Cytochrome P450 2C9 (P11712 whole entry): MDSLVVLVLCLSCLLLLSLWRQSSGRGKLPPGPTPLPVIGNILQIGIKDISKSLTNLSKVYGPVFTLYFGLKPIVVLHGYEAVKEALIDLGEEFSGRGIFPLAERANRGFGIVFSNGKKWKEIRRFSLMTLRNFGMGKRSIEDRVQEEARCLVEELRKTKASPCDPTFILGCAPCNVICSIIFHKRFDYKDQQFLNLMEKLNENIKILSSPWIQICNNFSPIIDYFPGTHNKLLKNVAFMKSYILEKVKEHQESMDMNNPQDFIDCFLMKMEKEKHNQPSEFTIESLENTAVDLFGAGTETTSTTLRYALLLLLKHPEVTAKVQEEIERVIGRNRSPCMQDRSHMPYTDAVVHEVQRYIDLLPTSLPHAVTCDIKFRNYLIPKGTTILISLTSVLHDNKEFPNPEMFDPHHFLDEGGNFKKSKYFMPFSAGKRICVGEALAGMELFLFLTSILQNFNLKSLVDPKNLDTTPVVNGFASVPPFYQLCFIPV
Chain of Cytochrome P450 3A4 (P08684 whole entry): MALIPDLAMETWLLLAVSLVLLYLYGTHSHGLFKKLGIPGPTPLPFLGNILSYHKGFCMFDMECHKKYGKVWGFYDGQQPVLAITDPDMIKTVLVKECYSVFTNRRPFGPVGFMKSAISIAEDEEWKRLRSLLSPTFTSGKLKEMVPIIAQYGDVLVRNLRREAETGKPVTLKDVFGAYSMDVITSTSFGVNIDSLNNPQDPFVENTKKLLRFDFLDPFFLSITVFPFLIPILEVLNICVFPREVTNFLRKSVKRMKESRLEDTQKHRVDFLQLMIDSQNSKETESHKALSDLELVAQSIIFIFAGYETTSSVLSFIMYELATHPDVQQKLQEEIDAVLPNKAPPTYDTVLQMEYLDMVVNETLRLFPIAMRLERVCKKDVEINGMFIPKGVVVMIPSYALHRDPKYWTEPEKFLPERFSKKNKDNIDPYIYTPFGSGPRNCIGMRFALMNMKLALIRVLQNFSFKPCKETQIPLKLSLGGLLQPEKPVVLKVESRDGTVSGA
Chain of Cytochrome P450 2C8 (P10632 whole entry): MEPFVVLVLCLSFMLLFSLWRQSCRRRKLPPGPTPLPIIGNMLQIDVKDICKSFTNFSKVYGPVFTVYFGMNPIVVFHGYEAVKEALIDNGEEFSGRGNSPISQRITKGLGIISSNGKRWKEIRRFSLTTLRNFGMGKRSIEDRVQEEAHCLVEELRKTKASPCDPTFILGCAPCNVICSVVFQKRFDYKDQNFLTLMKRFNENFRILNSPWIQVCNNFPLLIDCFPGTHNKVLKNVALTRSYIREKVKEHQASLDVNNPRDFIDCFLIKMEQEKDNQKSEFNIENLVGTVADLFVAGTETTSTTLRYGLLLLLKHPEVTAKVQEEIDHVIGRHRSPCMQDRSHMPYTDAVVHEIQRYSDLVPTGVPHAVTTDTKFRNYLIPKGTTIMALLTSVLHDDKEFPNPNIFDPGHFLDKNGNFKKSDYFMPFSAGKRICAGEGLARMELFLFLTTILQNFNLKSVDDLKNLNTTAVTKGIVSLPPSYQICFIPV
Chain of Casein kinase I isoform epsilon (P49674 whole entry, canonical isoform): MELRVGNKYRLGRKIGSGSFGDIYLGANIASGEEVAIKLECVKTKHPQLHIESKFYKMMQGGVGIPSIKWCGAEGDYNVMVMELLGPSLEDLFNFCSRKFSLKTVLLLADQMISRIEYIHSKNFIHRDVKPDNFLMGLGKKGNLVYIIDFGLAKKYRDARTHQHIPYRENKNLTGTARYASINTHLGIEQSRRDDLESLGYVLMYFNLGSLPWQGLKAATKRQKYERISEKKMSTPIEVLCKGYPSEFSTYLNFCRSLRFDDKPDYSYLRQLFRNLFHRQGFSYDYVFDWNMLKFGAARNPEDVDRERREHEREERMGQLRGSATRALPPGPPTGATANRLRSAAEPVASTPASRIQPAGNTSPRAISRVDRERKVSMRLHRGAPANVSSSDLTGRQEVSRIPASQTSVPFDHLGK
Chain of Cytochrome P450 2D6 (P10635 whole entry): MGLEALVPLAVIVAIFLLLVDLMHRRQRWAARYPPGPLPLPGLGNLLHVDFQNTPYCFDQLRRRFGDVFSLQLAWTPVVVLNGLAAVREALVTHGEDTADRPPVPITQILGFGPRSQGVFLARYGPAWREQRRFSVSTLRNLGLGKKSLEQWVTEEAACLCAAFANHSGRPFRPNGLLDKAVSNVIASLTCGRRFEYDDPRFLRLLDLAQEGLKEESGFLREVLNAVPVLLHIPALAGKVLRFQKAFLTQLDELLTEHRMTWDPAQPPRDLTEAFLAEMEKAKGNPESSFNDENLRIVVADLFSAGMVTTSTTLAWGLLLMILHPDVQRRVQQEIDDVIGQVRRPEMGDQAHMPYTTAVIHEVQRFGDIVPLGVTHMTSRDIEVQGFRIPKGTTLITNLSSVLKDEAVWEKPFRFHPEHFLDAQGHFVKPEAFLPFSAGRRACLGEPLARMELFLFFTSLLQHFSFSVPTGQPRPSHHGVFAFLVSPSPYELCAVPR
Chain of Cytochrome P450 1A2 (P05177 whole entry): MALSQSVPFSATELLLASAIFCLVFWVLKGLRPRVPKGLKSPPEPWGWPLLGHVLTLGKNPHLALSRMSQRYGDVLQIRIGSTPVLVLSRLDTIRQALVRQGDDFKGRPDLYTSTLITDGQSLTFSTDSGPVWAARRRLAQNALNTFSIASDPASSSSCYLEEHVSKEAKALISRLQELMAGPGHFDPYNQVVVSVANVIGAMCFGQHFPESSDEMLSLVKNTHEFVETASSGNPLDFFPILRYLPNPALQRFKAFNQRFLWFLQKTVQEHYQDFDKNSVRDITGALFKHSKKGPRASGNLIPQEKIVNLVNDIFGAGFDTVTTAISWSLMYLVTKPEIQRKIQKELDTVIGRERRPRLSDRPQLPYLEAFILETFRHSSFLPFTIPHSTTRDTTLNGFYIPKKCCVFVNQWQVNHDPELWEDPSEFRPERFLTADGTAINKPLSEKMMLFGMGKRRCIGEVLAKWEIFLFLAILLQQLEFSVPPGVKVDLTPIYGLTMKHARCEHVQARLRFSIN
Chain of Casein kinase I isoform alpha (P48729 whole entry, canonical isoform): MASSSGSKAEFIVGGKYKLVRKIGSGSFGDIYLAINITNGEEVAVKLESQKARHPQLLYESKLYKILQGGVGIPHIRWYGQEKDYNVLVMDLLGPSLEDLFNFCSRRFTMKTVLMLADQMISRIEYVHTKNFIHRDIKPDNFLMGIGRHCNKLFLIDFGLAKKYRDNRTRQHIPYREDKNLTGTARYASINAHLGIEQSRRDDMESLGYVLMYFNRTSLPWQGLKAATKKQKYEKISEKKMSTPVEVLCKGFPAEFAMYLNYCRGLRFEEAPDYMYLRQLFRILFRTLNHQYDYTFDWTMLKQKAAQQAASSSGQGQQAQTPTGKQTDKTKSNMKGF
Chain of Cytochrome P450 2C19 (P33261 whole entry): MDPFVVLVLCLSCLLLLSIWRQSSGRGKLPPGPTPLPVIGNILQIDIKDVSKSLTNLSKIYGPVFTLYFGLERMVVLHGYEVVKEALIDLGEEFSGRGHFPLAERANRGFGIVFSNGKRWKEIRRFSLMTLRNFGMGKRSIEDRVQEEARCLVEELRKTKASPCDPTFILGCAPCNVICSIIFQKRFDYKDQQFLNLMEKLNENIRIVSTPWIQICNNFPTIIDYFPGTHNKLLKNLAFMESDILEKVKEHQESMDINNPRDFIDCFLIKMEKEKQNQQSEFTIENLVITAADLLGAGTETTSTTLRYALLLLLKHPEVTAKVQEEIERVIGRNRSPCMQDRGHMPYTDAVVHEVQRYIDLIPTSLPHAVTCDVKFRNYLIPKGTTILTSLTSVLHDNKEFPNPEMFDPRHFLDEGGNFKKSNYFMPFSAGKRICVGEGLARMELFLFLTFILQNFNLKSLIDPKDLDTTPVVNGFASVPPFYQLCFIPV

With `[2H]C([2H])([2H])C1(C([2H])([2H])[2H])Cn2nc(-c3ccc(F)cn3)c(-c3ccnc4[nH]ncc34)c2CO1` the Cmax [1] was 1350 ng/g, the half-life [2] was 48 min and the “Drug uptake(free)” value [3] was 789 nM. The IC50 [4] was greater than 20 µM, the Occ [5] was 60% and the Cmax [6] was 3700 nM. For the same molecule, the fCmax [7] was 1.1 µM, the microsomal CLint at 1 µM [8] was less than 7.7 µL/min/mg and the IC50 [9] was greater than 20 µM. It also gave a Cmax [10] of 3000 nM, an IC50 [11] greater than 20 µM and a Vd [12] of 1 L/kg. The microsomal CLint at 1 µM [13] was 8.5 µL/min/mg, the clearance [14] was 44 mL/min/kg and the bioavailability [15] was 85%. It also gave an IC50 [16] of 0.41 µM, a microsomal CLint at 1 µM [17] of less than 7.7 µL/min/mg and an IC50 [18] greater than 20 µM. The IC50 [19] was greater than 20 µM, the IC50 [20] was greater than 20 µM and the Kp uu at 6 h [21] was 0.13. The microsomal CLint at 1 µM [22] was less than 7.7 µL/min/mg, the Papp A→B at 1 h, 5 µM [23] was 4.8 ×10⁻⁶ cm/s and the Cmax [24] was 23900 nM. For the same molecule, the microsomal CLint at 1 µM [25] was less than 7.7 µL/min/mg, the IC50 [26] was 0.11 µM and the Time [27] was 1.25 h. The Cmax [28] was 8850 ng/mL, the AUC(0-inf) [29] was 1940 ng·h/mL and the “Cp(f)” value [30] was 6117 nM.
With `CC1(C)Cn2nc(-c3ccc(F)cn3)c(-c3ccnc4[nH]ncc34)c2CO1` the Cmax [1] was 847 ng/g, the half-life [2] was 60 min and the “Drug uptake(free)” value [3] was 668 nM. For the same molecule, the IC50 [4] was greater than 20 µM, the Occ [5] was 56% and the bioavailability [31] was 4%. The fCmax [7] was 0.15 µM, the microsomal CLint at 1 µM [8] was less than 7.7 µL/min/mg and the IC50 [9] was greater than 20 µM. For the same molecule, the Cmax [10] was 400 nM, the IC50 [11] was greater than 20 µM and the Activity [32] was “Active”. For the same molecule, the Vd [12] was 1.2 L/kg, the microsomal CLint at 1 µM [13] was 17.2 µL/min/mg and the clearance [14] was 104 mL/min/kg. The bioavailability [15] was 19%, the IC50 [16] was 0.79 µM and the microsomal CLint at 1 µM [17] was 22.7 µL/min/mg. It also gave an IC50 [18] greater than 20 µM, an IC50 [33] of 3.2 µM and a Cmax [34] of 11300 nM. For the same molecule, the bioavailability [35] was 53%, the Cmax [36] was 2300 nM and the IC50 [19] was greater than 20 µM. It also gave an IC50 [20] greater than 20 µM, a Kp uu at 6 h [21] of 0.23 and a microsomal CLint at 1 µM [22] of 12.3 µL/min/mg. For the same molecule, the Papp A→B at 1 h, 5 µM [23] was 7.4 ×10⁻⁶ cm/s, the Activity [37] was “Active” and the IC50 [26] was 0.093 µM. The Time [27] was 0.83 h, the Cmax [38] was 700 nM and the Cmax [28] was 4110 ng/mL. For the same molecule, the AUC(0-inf) [29] was 150 ng·h/mL and the “Cp(f)” value [30] was 2899 nM.
